In patent US20240208942A1, “METAP-2 INHIBITORS, PHARMACEUTICAL COMPOSITIONS AND THERAPEUTIC METHODS THEREOF” (CANWELL BIOTECH LIMITED, priority 2021, published 2024):

molecular target: T1, recombinant human MetAP-2 (Homo sapiens, UniProt P50579); test: Enzymatic activity assay of Methionine aminopeptidase 2 (enzyme coupled assay, Met-Ala-Ser substrate); assay type: biochemical; conditions: recombinant human MetAP-2 (His-Tev-MetAP-2), absorbance at 450 nm, kinetic mode, read-out: MeAP2 IC50
T1 construct: His tag (N); TEV cleavage site (N); made in house
Procedure: The MetAP-2 activity was determined by an enzyme coupled assay using the tripeptide Met-Ala-Ser (MAS) as substrate and recombinant human MetAP-2 (His-Tev-MetAP-2, prepared in-house). The released methionine is converted by L-amino acid oxidase (AAO) to Met ox and hydrogen peroxide is released. In a second step horse radish peroxidase catalyses the oxidation of the leuko dye dianisidine to dianisidine ox with hydrogen peroxide as co-substrate. The produced dianisidine ox was detected photometrically as increase in absorbance at 450 nm. MetAP-2 activity was determined in a kinetic measurement mode. The release of one molecule methionine corresponds to the production of one molecule dianisidine ox. The MetAP-2 enzymatic activity is directly corresponding to the increase in absorbance per time.

T1 sequence (P50579 whole entry): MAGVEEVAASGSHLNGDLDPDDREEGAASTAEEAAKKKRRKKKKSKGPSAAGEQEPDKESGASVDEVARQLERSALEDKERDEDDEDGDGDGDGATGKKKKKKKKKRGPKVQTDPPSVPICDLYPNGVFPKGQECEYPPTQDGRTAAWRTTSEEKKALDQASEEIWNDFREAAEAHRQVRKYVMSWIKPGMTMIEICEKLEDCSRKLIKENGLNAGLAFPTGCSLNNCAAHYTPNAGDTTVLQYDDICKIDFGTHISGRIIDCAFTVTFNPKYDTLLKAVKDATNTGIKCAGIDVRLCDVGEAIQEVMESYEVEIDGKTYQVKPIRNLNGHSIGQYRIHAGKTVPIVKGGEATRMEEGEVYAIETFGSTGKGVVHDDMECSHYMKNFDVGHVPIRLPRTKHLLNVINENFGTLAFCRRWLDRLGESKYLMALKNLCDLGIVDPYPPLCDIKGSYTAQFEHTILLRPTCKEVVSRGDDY

Row | SMILES | IC50
1 | O=C(NCc1cc(F)cc(Cl)c1)C1(O)CCN(c2ccc(P(=O)(C3CCC3)C3CCC3)cc2)C1=O (racemic) [Compound 5-7] | < 1000 nM
2 | CP(C)(=O)c1ccc(N2CC[C@](O)(C(=O)NCc3cc(F)cc(F)c3)C2=O)cc1 [Compound 1, (S)-N-(3,5-difluorobenzyl)-1-(4-(dimethylphosphoryl)phenyl)-3-hydroxy-2-oxopyrrolidine-3-arboxamide] | < 1000 nM
3 | CP(C)(=O)c1ccc(N2CC[C@@](O)(C(=O)NCc3cc(F)cc(F)c3)C2=O)cc1 [Compound 1a, (R)-N-(3,5-difluorobenzyl)-1-(4-(dimethylphosphoryl)phenyl)-3-hydroxy-2-oxopyrrolidine-3-car boxamide] | 1000 to 10000 nM
4 | CP(C)(=O)c1cccc(N2CC[C@](O)(C(=O)NCc3cc(F)cc(F)c3)C2=O)c1 [Compound 2, (S)-N-(3,5-difluorobenzyl)-1-(3-(dimethylphosphoryl)phenyl)-3-hydroxy-2-oxopyrrolidine-3-carboxamide] | < 1000 nM
5 | CP(C)(=O)c1cccc(N2CC[C@@](O)(C(=O)NCc3cc(F)cc(F)c3)C2=O)c1 [Compound 2a] | 1000 to 10000 nM
6 | CCP(=O)(CC)c1ccc(N2CC[C@](O)(C(=O)NCc3cc(F)cc(F)c3)C2=O)cc1 [Compound 3, (S)-1-(4-(diethylphosphoryl)phenyl)-N-(3,5-difluorobenzyl)-3-hydroxy-2-oxopyrrolidine-3-c arboxamide] | < 1000 nM
7 | CCP(=O)(CC)c1ccc(N2CC[C@@](O)(C(=O)NCc3cc(F)cc(F)c3)C2=O)cc1 [Compound 3a] | 1000 to 10000 nM
8 | CC(C)P(=O)(c1ccc(N2CC[C@](O)(C(=O)NCc3cc(F)cc(F)c3)C2=O)cc1)C(C)C [Compound 4, (S)-N-(3,5-difluorobenzyl)-1-(4-(diisopropylphosphoryl)phenyl)-3-hydroxy-2-oxopyrrolidine-3-carboxamide] | < 1000 nM
9 | CC(C)P(=O)(c1ccc(N2CC[C@@](O)(C(=O)NCc3cc(F)cc(F)c3)C2=O)cc1)C(C)C [Compound 4a] | < 1000 nM
10 | O=C(NCc1cc(F)cc(Cl)c1)[C@@]1(O)CCN(c2ccc(P(=O)(C3CCC3)C3CCC3)cc2)C1=O [Compound 5, (S)-N-(3-chloro-5-fluorobenzyl)-1-(4-(dicyclobutylphosphoryl)phenyl)-3-hydroxy-2-oxopyrr olidine-3-carboxamide] | < 1000 nM
11 | O=C(NCc1cc(F)cc(Cl)c1)[C@]1(O)CCN(c2ccc(P(=O)(C3CCC3)C3CCC3)cc2)C1=O [Compound 5a] | 1000 to 10000 nM
12 | CP(C)(=O)c1ccc(N2CC[C@](O)(C(=O)NCc3cc(F)cc(F)c3)C2=O)cn1 [Compound 6, (S)-N-(3,5-difluorobenzyl)-1-(6-(dimethylphosphoryl)pyridin-3-yl)-3-hydroxy-2-oxopyrrolidine-3-carboxamide] | < 1000 nM
13 | CP(C)(=O)c1ccc(N2CC[C@@](O)(C(=O)NCc3cc(F)cc(F)c3)C2=O)cn1 [Compound 6a] | > 10000 nM
14 | CC(C)P(=O)(c1ccc(N2CC[C@](O)(C(=O)NCc3cc(F)cc(Cl)c3)C2=O)cc1)C(C)C [Compound 7, (S)-N-(3-chloro-5-fluorobenzyl)-1-(4-(diisopropylphosphoryl)phenyl)-3-hydroxy-2-oxopyrr olidine-3-carboxamide] | < 1000 nM
15 | CC(C)P(=O)(c1ccc(N2CC[C@@](O)(C(=O)NCc3cc(F)cc(Cl)c3)C2=O)cc1)C(C)C [Compound 7a] | > 10000 nM
16 | O=C(NCc1cc(F)cc(Cl)c1)[C@@]1(O)CCN(c2ccc(P(=O)(C3CC3)C3CC3)cc2)C1=O [Compound 8, (S)-N-(3-chloro-5-fluorobenzyl)-1-(4-(dicyclopropylphosphoryl)phenyl)-3-hydroxy-2-oxopy rrolidine-3-carboxamide] | < 1000 nM
17 | O=C(NCc1cc(F)cc(Cl)c1)[C@]1(O)CCN(c2ccc(P(=O)(C3CC3)C3CC3)cc2)C1=O [Compound 8a] | 1000 to 10000 nM

Row | SMILES | IC50
18 | CP(C)(=O)c1ccc(N2CC[C@](O)(C(=O)NCc3cc(F)cc(Cl)c3)C2=O)cc1 [Compound 9, (S)-N-(3-chloro-5-fluorobenzyl)-1-(4-(dimethylphosphoryl)phenyl)-3-hydroxy-2-oxopyrrolidine-3-carboxamide] | < 1000 nM
19 | CP(C)(=O)c1ccc(N2CC[C@@](O)(C(=O)NCc3cc(F)cc(Cl)c3)C2=O)cc1 [Compound 9a] | < 1000 nM
20 | O=C(NCc1cc(F)cc(F)c1)[C@@]1(O)CCN(c2ccc(P(=O)(C3CC3)C3CC3)cc2)C1=O [Compound 10, (S)-1-(4-(dicyclopropylphosphoryl)phenyl)-N-(3,5-difluorobenzyl)-3-hydroxy-2-oxopyrrolidine-3-carboxamide] | < 1000 nM
21 | O=C(NCc1cc(F)cc(F)c1)[C@]1(O)CCN(c2ccc(P(=O)(C3CC3)C3CC3)cc2)C1=O [Compound 10a] | 1000 to 10000 nM
22 | C[Si](C)(C)c1ccc(N2CC[C@](O)(C(=O)NCc3cc(F)cc(F)c3)C2=O)cc1 [Compound 11, (S)-N-(3,5-difluorobenzyl)-3-hydroxy-2-oxo-1-(4-(trimethylsilyl)phenyl)pyrrolidine-3-carbo xamide] | < 1000 nM
23 | O=C(NCc1cc(F)cc(F)c1)[C@@]1(O)CCN(c2ccc3c(c2)C2(CC2)CN3)C1=O [Compound 12, (S)-N-(3,5-difluorobenzyl)-3-hydroxy-2-oxo-1-(spiro[cyclopropane-1,3′-indoline]-5′-yl)pyrr olidine-3-carboxamide] | < 1000 nM
24 | O=C1Nc2ccc(N3CC[C@](O)(C(=O)NCc4cc(F)cc(Cl)c4)C3=O)cc2C12CC2 [Compound 13, (S)-N-(3-chloro-5-fluorobenzyl)-3-hydroxy-2-oxo-1-(2′-oxospiro[cyclopropane-1,3′-indoline]-5′-yl)pyrrolidine-3-carboxamide] | < 1000 nM
25 | O=C1Nc2ccc(N3CC[C@@](O)(C(=O)NCc4cc(F)cc(Cl)c4)C3=O)cc2C12CC2 [Compound 13a] | 1000 to 10000 nM
26 | O=C1Nc2ccc(N3CC[C@](O)(C(=O)NCc4cc(F)cc(Cl)c4)C3=O)cc2C12CCC2 [Compound 14, (S)-N-(3-chloro-5-fluorobenzyl)-3-hydroxy-2-oxo-1-(2′-oxospiro[cyclobutane-1,3′-indoline]-5′-yl)pyrrolidine-3-carboxamide] | < 1000 nM
27 | O=C1Nc2ccc(N3CC[C@](O)(C(=O)NCc4cc(F)cc(F)c4)C3=O)cc2C12CCCC2 [Compound 15, (S)-N-(3,5-difluorobenzyl)-3-hydroxy-2-oxo-1-(2′-oxospiro[cyclopentane-1,3′-indoline]-5′-yl)pyrrolidine-3-carboxamide] | < 1000 nM
28 | O=C1Nc2ccc(N3CC[C@](O)(C(=O)NCc4cc(F)cc(F)c4)C3=O)cc2C12CC2 [Compound 16, (S)-N-(3,5-difluorobenzyl)-3-hydroxy-2-oxo-1-(2′-oxospiro[cyclopropane-1,3′-indoline]-5′-yl)pyrrolidine-3-carboxamide] | < 1000 nM
29 | O=C1Nc2ncc(N3CC[C@](O)(C(=O)NCc4cc(F)cc(Cl)c4)C3=O)cc2C12CC2 [Compound 17, (S)-N-(3-chloro-5-fluorobenzyl)-3-hydroxy-2-oxo-1-(2′-oxo-1′,2′-dihydrospiro[cyclopropane-1,3′-pyrrolo[2,3-b]pyridine]-5′-yl)pyrrolidine-3-carboxamide] | < 1000 nM
30 | O=C(NCc1cc(F)cc(F)c1)[C@@]1(O)CCN(c2ccc3c(c2)C2(CCC2)S(=O)(=O)N3)C1=O [Compound 18, (S)-N-(3,5-difluorobenzyl)-1-(2,2-dioxido-1H-spiro[benzo[c]isothiazole-3,1′-cyclobutan]-5-y 1)-3-hydroxy-2-oxopyrrolidine-3-carboxamide] | < 1000 nM
31 | O=C(NCc1cc(F)cc(Cl)c1)[C@@]1(O)CCN(c2ccc3c(c2)C2(CCC2)S(=O)(=O)N3)C1=O [Compound 19, (S)-N-(3-chloro-5-fluorobenzyl)-1-(2,2-dioxido-1H-spiro[benzo[c]isothiazole-3,1′-cyclobutan]-5-yl)-3-hydroxy-2-oxopyrrolidine-3-carboxamide] | < 1000 nM
32 | O=C(NCc1cc(F)cc(Cl)c1)[C@@]1(O)CCN(c2ccc3c(c2)C2(CC2)S(=O)(=O)N3)C1=O [Compound 20, (S)-N-(3-chloro-5-fluorobenzyl)-1-(2,2-dioxido-1H-spiro[benzo[c]isothiazole-3,1′-cyclopropan]-5-yl)-3-hydroxy-2-oxopyrrolidine-3-carboxamide] | < 1000 nM
33 | NC(=O)c1cc2cc(N3CCC(O)(C(=O)NCc4cc(F)cc(F)c4)C3=O)sc2[nH]1 (stereo not drawn) [Compound 23, 2-(3-(3,5-difluorobenzylcarbamoyl)-3-hydroxy-2-oxopyrrolidin-1-yl)-6H-thieno[2,3-b]pyrro 1e-5-carboxamide] | < 1000 nM
